The target in test [1] is CDK1/cyclin B (Homo sapiens (Human), UniProt P06493). The test is described as follows: CDK1/cyclin B enzymatic activity assay (IMAP-FP). It is filed as biochemical. To be noted: […] CDK1/cyclin B, 100 nM Tamra Histone-H1 peptide, 20 μM ATP, 120 min at room temperature; read-out: Biochemical CDK1 enzyme IC50. The text has this: CDK1/Cyclin B Enzymatic Activity Assay
A 384-well microtiter IMAP-FP™ (Molecular Devices Trade Mark Technology) endpoint assay was used for CDK1/cyclin B kinase activity measurements. The same assay was used for IC50 determination of small molecule inhibitors.

Test [2] concerns phosphorylation of pRb at the Ser780 site in JeKo-1 mantle cell lymphoma cells. As to the kind of experiment: CDK4 cellular assay: ELISA of pRb phosphorylation at Ser780 in JeKo-1 cells. It counts as cell-based. Background: An ELISA detects its analyte on a solid surface through an enzyme-linked reagent.
The target of test [3] is CDK4/cyclin D1 (Homo sapiens (Human), UniProt P11802). The test is described as follows: CDK4/cyclin D1 enzymatic activity assay (TR-FRET, phosphorylation of pRb at Ser780). It is filed as biochemical. The gist of the method:
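Phosphorylation at pRb Ser780, detected by TR-FRET, gave IC50s and kinetics. Enzyme: baculovirus/Sf21-expressed human CDK4/cyclin D1. ATP at 3 μM initiated the reaction; EDTA (pH 8.0) stopped it after 60 min at 22° C.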

[4] abbreviates: Homo sapiens, JeKo-1 cells, p-pRb % inhibition adjusted with total pRb levels, read-out: Normalized cellular ppRb inhibition IC50.
The mark [5] stands for this setting: Homo sapiens, JeKo-1 cells, p-pRb Ser780 ELISA, non-normalized, read-out: Cellular ppRb inhibition IC50.
Setting [6] is: 0.3 nM CDK4/cyclin D1, 150 nM biotin-pRb (773-924), 3 μM ATP, 60 min at 22° C.; read-out: Biochemical CDK4 enzyme IC50.
Where [7] appears, read: Homo sapiens, JeKo-1, read-out: Cellular ppRb inhibition IC50.
The mark [8] stands for this setting: Homo sapiens, JeKo-1, read-out: Normalized cellular ppRb inhibition IC50.
Setting [9] is: Homo sapiens, JeKo-1, JeKo-1 cells, p-pRb % inhibition adjusted with total pRb levels, read-out: Normalized cellular ppRb inhibition IC50.
Where [10] appears, read: Homo sapiens, JeKo-1, JeKo-1 cells, p-pRb Ser780 ELISA, non-normalized, read-out: Cellular ppRb inhibition IC50.
Setting [11] is: JeKo-1 cells, p-pRb % inhibition adjusted with total pRb levels, read-out: Normalized cellular ppRb inhibition IC50.
Setting [12] is: JeKo-1 cells, p-pRb Ser780 ELISA, non-normalized, read-out: Cellular ppRb inhibition IC50.

Like-named read-outs stand apart in the source and are kept apart here.

This note sets out measurements from patent US8957074B2 (Novartis AG, priority 2010, dated 2015).

CDK4/cyclin D1, sequence (P11802 whole entry): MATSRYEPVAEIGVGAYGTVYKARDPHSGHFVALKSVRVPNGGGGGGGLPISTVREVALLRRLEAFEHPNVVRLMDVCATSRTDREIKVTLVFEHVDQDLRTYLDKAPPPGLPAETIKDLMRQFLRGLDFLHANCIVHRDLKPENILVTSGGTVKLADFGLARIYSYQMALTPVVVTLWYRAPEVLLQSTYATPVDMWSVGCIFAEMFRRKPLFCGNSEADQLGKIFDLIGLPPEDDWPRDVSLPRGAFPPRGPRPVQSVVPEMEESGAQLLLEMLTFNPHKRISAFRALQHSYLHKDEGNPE
CDK4/cyclin D1, sequence (P24385 whole entry partner): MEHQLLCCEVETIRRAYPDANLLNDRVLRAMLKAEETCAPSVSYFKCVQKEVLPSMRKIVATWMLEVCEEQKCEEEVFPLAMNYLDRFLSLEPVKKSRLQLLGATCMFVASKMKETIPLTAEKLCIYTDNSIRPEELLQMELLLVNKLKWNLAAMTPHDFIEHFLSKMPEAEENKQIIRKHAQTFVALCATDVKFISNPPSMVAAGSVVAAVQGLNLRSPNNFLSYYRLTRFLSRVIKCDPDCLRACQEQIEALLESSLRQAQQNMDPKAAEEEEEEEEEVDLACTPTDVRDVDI
CDK1/cyclin B, sequence (P06493 whole entry, species assumed): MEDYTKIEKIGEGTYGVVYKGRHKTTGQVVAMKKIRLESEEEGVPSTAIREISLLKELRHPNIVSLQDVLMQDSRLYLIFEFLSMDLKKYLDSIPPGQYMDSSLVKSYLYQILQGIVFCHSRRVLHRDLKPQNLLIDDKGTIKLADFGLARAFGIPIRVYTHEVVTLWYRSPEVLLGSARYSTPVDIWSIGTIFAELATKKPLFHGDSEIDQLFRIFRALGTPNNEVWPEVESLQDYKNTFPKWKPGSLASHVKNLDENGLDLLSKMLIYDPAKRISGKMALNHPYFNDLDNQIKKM
CDK1/cyclin B, sequence (P14635 whole entry partner, species assumed): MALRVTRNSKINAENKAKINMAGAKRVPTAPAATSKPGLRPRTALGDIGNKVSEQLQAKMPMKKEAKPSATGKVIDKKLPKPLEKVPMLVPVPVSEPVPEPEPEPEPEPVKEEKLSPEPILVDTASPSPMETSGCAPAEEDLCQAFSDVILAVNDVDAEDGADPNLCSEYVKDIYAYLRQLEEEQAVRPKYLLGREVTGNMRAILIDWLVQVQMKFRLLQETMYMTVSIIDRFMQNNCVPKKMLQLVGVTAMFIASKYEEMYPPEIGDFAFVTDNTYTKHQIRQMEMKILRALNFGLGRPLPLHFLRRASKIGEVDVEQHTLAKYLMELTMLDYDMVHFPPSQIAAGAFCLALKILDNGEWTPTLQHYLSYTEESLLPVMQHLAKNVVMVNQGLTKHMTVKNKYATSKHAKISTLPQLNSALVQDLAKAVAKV

A word on the IC50: it is the midpoint of a concentration-inhibition curve. Turning to `CN(C)C(=O)c1cc2cnc(Nc3ccc(N4CC5CC4CN5)cn3)nc2n1C1CCCC1` (centres unmarked) [Example 111, 7-Cyclopentyl-2-[5-(2,5-diaza-bicyclo[2.2.1]hept-2-yl)-pyridin-2-ylamino]-7H-pyrrolo[2,3-d]pyrimidine-6-carboxylic acid dimethylamide], the IC50 in test [1] is 9170 nM; in test [2] (setting [4]) it was 452 nM; in test [2] (setting [5]) it was 371 nM; in test [3] (setting [6]) it was 41 nM.

As for `CN(C)C(=O)c1cc2cnc(Nc3ccc(C(=O)N4[C@@H]5CC[C@H]4C[C@@H](O)C5)cn3)nc2n1C1CCCC1` [Example 44, 7-Cyclopentyl-2-[5-((1S,3R,5R)-3-hydroxy-8-aza-bicyclo[3.2.1]octane-8-carbonyl)-pyridin-2-ylamino]-7H-pyrrolo[2,3-d]pyrimidine-6-carboxylic acid dimethylamide], the IC50 was above 15000 nM in test [1], 720 to 1490 nM in test [2] (setting [7]), 778 nM in test [2] (setting [8]) and 177 to 351 nM in test [3] (setting [6]).

In the case of `CN(C)C(=O)c1cc2cnc(Nc3ccc(C(=O)N4CCC5(CC4)CNC5)cn3)nc2n1C1CCCCCC1` [Example 5, 2-(5-(2,7-diazaspiro[3.5]nonane-7-carbonyl)pyridin-2-ylamino)-7-cycloheptyl-N,N-dimethyl-7H-pyrrolo[2,3-d]pyrimidine-6-carboxamide], the concentration for half-maximal inhibition (IC50) is above 15000 nM in test [1], 117 nM in test [2] (setting [4]), 115 nM in test [2] (setting [5]) and 8 to 16 nM in test [3] (setting [6]).

Regarding `CN(C)C(=O)c1cc2cnc(Nc3ccc(C(=O)N4C[C@@H]5C[C@H]4CN5)cn3)nc2n1C1CCCC1` [Example 19, 7-Cyclopentyl-2-[5-((S,S)-2,5-diaza-bicyclo[2.2.1]heptane-2-carbonyl)-pyridin-2-ylamino]-7H-pyrrolo[2,3-d]pyrimidine-6-carboxylic acid dimethylamide], the IC50 in test [1] was above 15000 nM; in test [2] (setting [9]), 64 to 116 nM; in test [2] (setting [10]), 54 to 55 nM; in test [3] (setting [6]), 5 to 8 nM.

For the compound `CN(C)C(=O)c1cc2cnc(Nc3ccc(N4CCC5(CCNCC5)C4=O)cn3)nc2n1C1CCCC1` [Example 117, 7-cyclopentyl-N,N-dimethyl-2-(5-(1-oxo-2,8-diazaspiro[4.5]decan-2-yl)pyridin-2-ylamino)-7H-pyrrolo[2,3-d]pyrimidine-6-carboxamide], the IC50 is above 15000 nM in test [1], 51 to 82 nM in test [2] (setting [11]), 40 to 67 nM in test [2] (setting [12]) and 7 to 9 nM in test [3] (setting [6]).

On to `CN(C)C(=O)c1cc2cnc(Nc3ccc(C(=O)N4CC5CCC(C4)N5)nn3)nc2n1C1CCCC1` [Example 73, 7-Cyclopentyl-2-[6-(3,8-diaza-bicyclo[3.2.1]octane-3-carbonyl)-pyridazin-3-ylamino]-7H-pyrrolo[2,3-d]pyrimidine-6-carboxylic acid dimethylamide], for which the 50% inhibitory concentration (IC50) in test [1] was above 15000 nM; in test [2] (setting [11]) it was 139 to 783 nM; in test [2] (setting [12]) it was 75 to 259 nM; in test [3] (read-out: Biochemical CDK4 enzyme IC50; 0.3 nM CDK4/cyclin D1, 150 nM biotin-pRb (773-924), 3 μM ATP, 60 min at 22° C.) it was 45 to 84 nM.

In the case of `CN(C)C(=O)c1cc2cnc(Nc3ccc(N4C[C@@H]5CC[C@H](CC4=O)N5)cn3)nc2n1-c1ccccc1` [Example 129, 2-[5-((1S,6R)-4-Oxo-3,9-diaza-bicyclo[4.2.1]non-3-yl)-pyridin-2-ylamino]-7-phenyl-7H-pyrrolo[2,3-d]pyrimidine-6-carboxylic acid dimethylamide], the half-maximal inhibitory concentration (IC50) is above 15000 nM in test [1], 221 nM in test [2] (setting [9]), 194 nM in test [2] (setting [10]) and 48 nM in test [3] (setting [6]).

Consider `CN(C)C(=O)c1cc2cnc(Nc3ccc(N4CC5CNCC5CC4=O)cn3)nc2n1C1CCCCCC1` (racemic) [Example 87, 7-cycloheptyl-N,N-dimethyl-2-(5-(cis-6-oxotetrahydro-1H-pyrrolo[3,4-c]pyridin-5(6H,7H,7aH)-yl)pyridin-2-ylamino)-7H-pyrrolo[2,3-d]pyrimidine-6-carboxamide], for which the 50% inhibitory concentration (IC50) in test [1] is 4140 nM; in test [2] (setting [7]) it was 5 to 8 nM; in test [2] (setting [8]), 6 to 15 nM; in test [3] (setting [6]) it was below 5 nM.
